Values joined by “and” are separate entries in the source; they are usually repeats but may differ in a detail not shown here. Equal entries are not always repeated.
What was measured:
[1] = for Triple point temperature: DSC
[2] = Molar enthalpy of transition or fusion; details: Crystal; DSC

c1ccc2c(c1)cnc1ccccc12 [phenanthridine]
[1]
Details	vapor or sublimation pressure
318.6 K, Crystal, Torsion effusion method	3.8e-05 kPa
322.1 K, Crystal, Torsion effusion method	5.7e-05 kPa
323.2 K, Crystal, Torsion effusion method	7.6e-05 kPa
324 K, Crystal, Torsion effusion method	7.6e-05 kPa
325 K, Crystal, Torsion effusion method	8.5e-05 kPa
325.2 K, Crystal, Torsion effusion method	9.4e-05 kPa
325.9 K, Crystal, Torsion effusion method	0.000104 kPa
327 K, Crystal, Torsion effusion method	0.000104 kPa
327.6 K, Crystal, Torsion effusion method	0.000124 kPa
329.1 K, Crystal, Torsion effusion method	0.000133 kPa
329.3 K, Crystal, Torsion effusion method	0.000151 kPa
330 K, Crystal, Torsion effusion method	0.000142 kPa
330.9 K, Crystal, Torsion effusion method	0.000181 kPa
331.9 K, Crystal, Torsion effusion method	0.00019 kPa
332.6 K, Crystal, Torsion effusion method	0.000208 kPa
332.9 K, Crystal, Torsion effusion method	0.000228 kPa
333.9 K, Crystal, Torsion effusion method	0.00025 kPa
334.1 K, Crystal, Torsion effusion method	0.00023 kPa
334.7 K, Crystal, Torsion effusion method	0.00025 kPa
335 K, Crystal, Torsion effusion method	0.00026 kPa
335.7 K, Crystal, Torsion effusion method	0.0003 kPa
335.9 K, Crystal, Torsion effusion method	0.00028 kPa
337 K, Crystal, Torsion effusion method	0.00034 kPa
337.9 K, Crystal, Torsion effusion method	0.00038 kPa
338.4 K, Crystal, Torsion effusion method	0.00036 kPa
339.8 K, Crystal, Torsion effusion method	0.00045 kPa
340 K, Crystal, Torsion effusion method	0.00044 kPa and 0.00047 kPa
341.4 K, Crystal, Torsion effusion method	0.00053 kPa
341.5 K, Crystal, Torsion effusion method	0.00055 kPa
342.2 K, Crystal, Torsion effusion method	0.00061 kPa
342.9 K, Crystal, Torsion effusion method	0.00061 kPa
343.2 K, Crystal, Torsion effusion method	0.00072 kPa
345.3 K, Crystal, Torsion effusion method	0.00085 kPa
345.5 K, Crystal, Torsion effusion method	0.00079 kPa
347.1 K, Crystal, Torsion effusion method	0.001 kPa
347.3 K, Crystal, Torsion effusion method	0.00093 kPa
348.2 K, Crystal, Torsion effusion method	0.00115 kPa
349.4 K, Crystal, Torsion effusion method	0.00128 kPa
388.1 K, Liquid, Rate of evaporation	0.038 kPa
393.1 K, Liquid, Rate of evaporation	0.05 kPa
398.1 K, Liquid, Rate of evaporation	0.065 kPa
403.1 K, Liquid, Rate of evaporation	0.086 kPa
408.1 K, Liquid, Rate of evaporation	0.113 kPa
413.1 K, Liquid, Rate of evaporation	0.145 kPa
418.1 K, Liquid, Rate of evaporation	0.187 kPa
423.1 K, Liquid, Rate of evaporation	0.24 kPa
428.1 K, Liquid, Rate of evaporation	0.302 kPa
433.1 K, Liquid, Rate of evaporation	0.369 kPa
438.1 K, Liquid, Rate of evaporation	0.469 kPa
443.1 K, Liquid, Rate of evaporation	0.567 kPa
448.1 K, Liquid, Rate of evaporation	0.728 kPa
453.1 K, Liquid, Rate of evaporation	0.854 kPa

Details	Triple point temperature [K]
[1], Crystal	379.1

Details	Molar enthalpy of transition or fusion [kJ/mol]
[2]	24.8

c1cnc2ccc3ncccc3c2c1 [4,7-phenanthroline]
[1]
Details	vapor or sublimation pressure
336.8 K, Crystal, Torsion effusion method	2.8e-05 kPa
337.1 K, Crystal, Torsion effusion method	2.8e-05 kPa
339.5 K, Crystal, Torsion effusion method	3.8e-05 kPa
340 K, Crystal, Torsion effusion method	3.8e-05 kPa
340.1 K, Crystal, Torsion effusion method	3.8e-05 kPa
341 K, Crystal, Torsion effusion method	4.7e-05 kPa
341.9 K, Crystal, Torsion effusion method	4.7e-05 kPa
342.8 K, Crystal, Torsion effusion method	5.7e-05 kPa
342.9 K, Crystal, Torsion effusion method	5.7e-05 kPa
343.3 K, Crystal, Torsion effusion method	5.7e-05 kPa
346 K, Crystal, Torsion effusion method	8.5e-05 kPa
346.6 K, Crystal, Torsion effusion method	9.4e-05 kPa
346.7 K, Crystal, Torsion effusion method	9.4e-05 kPa
348.3 K, Crystal, Torsion effusion method	0.000114 kPa
349 K, Crystal, Torsion effusion method	0.000114 kPa
349.4 K, Crystal, Torsion effusion method	0.000133 kPa
350.6 K, Crystal, Torsion effusion method	0.000151 kPa
350.8 K, Crystal, Torsion effusion method	0.000133 kPa
351.7 K, Crystal, Torsion effusion method	0.00017 kPa
351.8 K, Crystal, Torsion effusion method	0.00017 kPa
352.7 K, Crystal, Torsion effusion method	0.00019 kPa
352.8 K, Crystal, Torsion effusion method	0.00017 kPa
354.4 K, Crystal, Torsion effusion method	0.000208 kPa
354.7 K, Crystal, Torsion effusion method	0.000219 kPa
354.8 K, Crystal, Torsion effusion method	0.000228 kPa
355.5 K, Crystal, Torsion effusion method	0.000264 kPa
355.7 K, Crystal, Torsion effusion method	0.000247 kPa
355.8 K, Crystal, Torsion effusion method	0.000247 kPa
356.4 K, Crystal, Torsion effusion method	0.000264 kPa
358.2 K, Crystal, Torsion effusion method	0.00034 kPa and 0.000323 kPa
358.7 K, Crystal, Torsion effusion method	0.000361 kPa
359.4 K, Crystal, Torsion effusion method	0.000379 kPa
360.2 K, Crystal, Torsion effusion method	0.000415 kPa
360.5 K, Crystal, Torsion effusion method	0.000436 kPa and 0.000415 kPa
361.4 K, Crystal, Torsion effusion method	0.000512 kPa
362.2 K, Crystal, Torsion effusion method	0.000472 kPa
363.1 K, Crystal, Torsion effusion method	0.000533 kPa
363.2 K, Crystal, Torsion effusion method	0.000571 kPa
364.1 K, Crystal, Torsion effusion method	0.000625 kPa
366.2 K, Crystal, Torsion effusion method	0.000819 kPa and 0.000741 kPa
368.4 K, Crystal, Torsion effusion method	0.000951 kPa
368.7 K, Crystal, Torsion effusion method	0.00102 kPa
369.6 K, Crystal, Torsion effusion method	0.001041 kPa
463.1 K, Liquid, Rate of evaporation	1.495 kPa
468.1 K, Liquid, Rate of evaporation	1.882 kPa
473.1 K, Liquid, Rate of evaporation	2.253 kPa
477.9 K, Liquid, Rate of evaporation	2.67 kPa
481.9 K, Liquid, Rate of evaporation	3.103 kPa
486.5 K, Liquid, Rate of evaporation	4.064 kPa
492.1 K, Liquid, Rate of evaporation	5.014 kPa
496.2 K, Liquid, Rate of evaporation	6.311 kPa

Details	Triple point temperature [K]
[1], Crystal	444.1

Details	Molar enthalpy of transition or fusion [kJ/mol]
[2]	22.4

c1cnc2c(c1)ccc1ncccc12 [1,5-diazaphenanthrene]
[1]
Details	vapor or sublimation pressure
315 K, Crystal, Torsion effusion method	3.8e-05 kPa
315.1 K, Crystal, Torsion effusion method	3.8e-05 kPa
317.3 K, Crystal, Torsion effusion method	4.7e-05 kPa
317.9 K, Crystal, Torsion effusion method	5.7e-05 kPa
318.6 K, Crystal, Torsion effusion method	5.7e-05 kPa
319.5 K, Crystal, Torsion effusion method	6.7e-05 kPa
320.5 K, Crystal, Torsion effusion method	7.6e-05 kPa
320.8 K, Crystal, Torsion effusion method	7.6e-05 kPa
322.6 K, Crystal, Torsion effusion method	0.0001 kPa
322.9 K, Crystal, Torsion effusion method	0.00011 kPa
323 K, Crystal, Torsion effusion method	0.000114 kPa
323.8 K, Crystal, Torsion effusion method	0.00011 kPa
325.3 K, Crystal, Torsion effusion method	0.000142 kPa
325.6 K, Crystal, Torsion effusion method	0.00014 kPa
326 K, Crystal, Torsion effusion method	0.00015 kPa
326.2 K, Crystal, Torsion effusion method	0.00017 kPa
327.5 K, Crystal, Torsion effusion method	0.00021 kPa
328.2 K, Crystal, Torsion effusion method	0.000208 kPa and 0.00021 kPa
328.7 K, Crystal, Torsion effusion method	0.00023 kPa
329.1 K, Crystal, Torsion effusion method	0.00025 kPa
329.6 K, Crystal, Torsion effusion method	0.00026 kPa
330.5 K, Crystal, Torsion effusion method	0.00028 kPa
331 K, Crystal, Torsion effusion method	0.0003 kPa
331.5 K, Crystal, Torsion effusion method	0.00033 kPa
332 K, Crystal, Torsion effusion method	0.00032 kPa
333 K, Crystal, Torsion effusion method	0.00041 kPa
334.5 K, Crystal, Torsion effusion method	0.00044 kPa
334.9 K, Crystal, Torsion effusion method	0.00051 kPa
335 K, Crystal, Torsion effusion method	0.00047 kPa
336.2 K, Crystal, Torsion effusion method	0.00061 kPa
336.5 K, Crystal, Torsion effusion method	0.00055 kPa
337.7 K, Crystal, Torsion effusion method	0.00072 kPa
338.3 K, Crystal, Torsion effusion method	0.00072 kPa
339.3 K, Crystal, Torsion effusion method	0.00072 kPa
340 K, Crystal, Torsion effusion method	0.00095 kPa and 0.00091 kPa
340.4 K, Crystal, Torsion effusion method	0.00087 kPa
341.5 K, Crystal, Torsion effusion method	0.00112 kPa
342.6 K, Crystal, Torsion effusion method	0.00108 kPa
343.5 K, Crystal, Torsion effusion method	0.00127 kPa
380.1 K, Liquid, Rate of evaporation	0.023 kPa
382.1 K, Liquid, Rate of evaporation	0.028 kPa
385.6 K, Liquid, Rate of evaporation	0.032 kPa
388.2 K, Liquid, Rate of evaporation	0.037 kPa
390.3 K, Liquid, Rate of evaporation	0.043 kPa
393.1 K, Liquid, Rate of evaporation	0.05 kPa
395.6 K, Liquid, Rate of evaporation	0.057 kPa
398.1 K, Liquid, Rate of evaporation	0.065 kPa
403.1 K, Liquid, Rate of evaporation	0.086 kPa
405.6 K, Liquid, Rate of evaporation	0.097 kPa
408.1 K, Liquid, Rate of evaporation	0.113 kPa
410.9 K, Liquid, Rate of evaporation	0.132 kPa
413.1 K, Liquid, Rate of evaporation	0.145 kPa
418.1 K, Liquid, Rate of evaporation	0.187 kPa
423.1 K, Liquid, Rate of evaporation	0.24 kPa
428.1 K, Liquid, Rate of evaporation	0.302 kPa

Details	Triple point temperature [K]
[1], Crystal	351.7

Details	Molar enthalpy of transition or fusion [kJ/mol]
[2]	25.6
